The results in this text go back to patent US20110230477A1, “COMPOUNDS, PHARMACEUTICAL COMPOSITION AND METHODS FOR USE IN TREATING METABOLIC DISORDERS” (Euroscreen S.A., priority 2008, published 2011).

In the assay the target is T1, human GPR43 receptor (hGPR43) (Homo sapiens, UniProt O15552).
T1 construct: expressed in transfected cells
T1 sequence (O15552 1-330): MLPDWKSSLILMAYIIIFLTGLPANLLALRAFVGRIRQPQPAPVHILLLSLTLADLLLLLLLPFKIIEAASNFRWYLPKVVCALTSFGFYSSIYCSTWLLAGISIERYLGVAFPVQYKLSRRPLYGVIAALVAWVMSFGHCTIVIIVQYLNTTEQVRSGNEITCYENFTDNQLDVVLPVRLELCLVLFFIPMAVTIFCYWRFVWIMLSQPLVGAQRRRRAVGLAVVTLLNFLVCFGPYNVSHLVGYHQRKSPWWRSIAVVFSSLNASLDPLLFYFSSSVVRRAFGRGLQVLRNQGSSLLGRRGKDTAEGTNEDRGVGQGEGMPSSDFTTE
Kind of assay: GTPγS binding assay (SPA method). As to conditions: membranes expressing hGPR43; assay performed in the presence of SCFA; read-out: EC50 (nM) in GTPγ35S assay. The class given is biochemical. From the text:
The following assay can be used for determination of GPR43 activation. When a GPCR is in its active state, either as a result of ligand binding or constitutive activation, the receptor couples to a G protein and stimulates the release of GDP and subsequent binding of GTP to the G protein. The alpha subunit of the G protein-receptor complex acts as a GTPase and slowly hydrolyses the GTP to GDP, at which point the receptor normally is deactivated. Activated receptors continue to exchange GDP for GTP. […] The assay uses the ability of GPCR to stimulate [^35S]GTPγS binding to membranes expressing the relevant receptors. The assay can, therefore, be used in the direct identification method to screen candidate compounds to endogenous or not endogenous GPCR.
Membrane extracts were prepared from cells expressing the human GPR43 receptor (hGPR43) as follows: the medium was aspirated and the cells were scraped from the plates in Ca^++ and Mg^++-free Phosphate-buffered saline (PBS). The cells were then centrifuged for 3 min at 1500 g and the pellets were resuspended in buffer A (15 mM Tris-HCl pH 7.5, 2 mM MgCl2, 0.3 mM EDTA, 1 mM EGTA) and homogenized in a glass homogenizer. […] Protein content was assayed by the Folin method.
The assay was performed in the presence of SCFA, and was used to determine the activity of the compounds of the invention.
The [^35S]GTPγS assay was incubated in 20 mM HEPES pH7.4, 100 mM NaCl, 10 μg/ml saponin, 30 mM of MgCl2, 10 μM of GDP, 5 μg membrane-expressing hGPR43, 250 μg of wheatgerm agglutinin beads (Amersham, ref: RPNQ001), a range concentration of compounds (from 30 μM to 1 nM) in a final volume of 100 μl for 30 min at room temperature. The SCFA propionate was used at 1 mM final concentration as positive control. The plates were then centrifuged for 10 minutes at 2000 rpm, incubated for 2 hours at room temperature and counted for 1 min in a scintillation counter (TopCount, PerkinElmer).
`CN(C(=O)[C@@H](CC(=O)O)CC1CCCO1)c1nc(-c2ccccc2Cl)cs1` (stereo partly drawn) [Compound 154, (3R)-4-((4-(2-chlorophenyl)thiazol-2-yl)(methyl)amino)-4-oxo-3-((tetrahydrofuran-2-yl)methyl)butanoic acid]: the EC50 was 832 nM.

Regarding `COCCN(C(=O)[C@@H](CC(=O)O)Cc1ccccc1)c1nc(-c2ccccc2Cl)cs1` [Compound 199, (R)-3-benzyl-4-((4-(2-chlorophenyl)thiazol-2-yl)(2-methoxyethyl)amino)-4-oxobutanoic acid], the EC50 was 1380 nM.

With `O=C(Nc1nc(-c2ccccc2Cl)cs1)[C@H]1CC=CC[C@H]1C(=O)O` (relative stereo) [Compound 98, cis-6-(4-(2-chlorophenyl)thiazol-2-ylcarbamoyl)cyclohex-3-enecarboxylic acid], the 50% effective concentration (EC50) was found to be 113 nM.

Consider `Cc1nc(CC(CC(=O)O)C(=O)N(C)c2nc(-c3ccccc3Cl)cs2)cs1` (stereo not shown) [Compound 209, 4-((4-(2-chlorophenyl)thiazol-2-yl)(methyl)amino)-3-((2-methylthiazol-4-yl)methyl)-4-oxobutanoic acid], for which the EC50 was 2470 nM.

Turning to `O=C(O)C[C@@H](C(=O)Nc1nc(-c2ccccc2Cl)cs1)c1ccccc1` [Compound 92, (R)-4-(4-(2-chlorophenyl)thiazol-2-ylamino)-4-oxo-3-phenylbutanoic], the concentration for a half-maximal effect (EC50) is 249 nM.

In the case of `COc1ccc(-c2ccccc2-c2csc(N(C)C(=O)[C@@H](CC(=O)O)Cc3ccccc3)n2)cn1` [Compound 116, (R)-3-benzyl-4-((4-(2-(6-methoxypyridin-3-yl)phenyl)thiazol-2-yl)(methyl)amino)-4-oxobutanoic acid], the EC50 was 175 nM.

On to `COC(=O)CN(C(=O)[C@@H](CC(=O)O)Cc1ccccc1)c1nc(-c2ccccc2Cl)cs1` [Compound 23, (R)-3-benzyl-4-((4-(2-chlorophenyl)thiazol-2-yl)(2-methoxy-2-oxoethyl)amino)-4-oxobutanoic acid], for which the EC50 was determined as 327 nM.

On to `CN(C(=O)[C@@H](CC(=O)O)Cc1ccccc1)c1nc(-c2ccccc2-c2ccc(N3CCCC3)nc2)cs1` [Compound 131, (R)-1-(5-(2-(2-(2-benzyl-3-carboxy-N-methylpropanamido)thiazol-4-yl)phenyl)pyridin-2-yl)pyrrolidin-1-ium 2,2,2-trifluoroacetate], for which the 50% effective concentration (EC50) was determined as 96 nM.

`COc1ncc(-c2ccccc2-c2csc(N(C(=O)[C@@H](CC(=O)O)CC3CCCC3)C3CC3)n2)cc1F` [Compound 220, (R)-3-(cyclopentylmethyl)-4-(cyclopropyl(4-(2-(5-fluoro-6-methoxypyridin-3-yl)phenyl)thiazol-2-yl)amino)-4-oxobutanoic acid]: the concentration giving a half-maximal response (EC50) came out at 27 nM.

`CN(C(=O)[C@@H](CC(=O)O)Cc1ccccc1)c1nc(-c2ccccc2C#N)cs1` [Compound 91, (R)-3-benzyl-4-((4-(2-cyanophenyl)thiazol-2-yl)(methyl)amino)-4-oxobutanoic acid]: the EC50 is 354 nM.

On to `CN(C(=O)[C@@H](CC(=O)O)CC1CCCC1)c1nc(-c2ccccc2-c2ccc(N3CCOCC3)nc2)cs1` [Compound 171, (R)-3-(cyclopentylmethyl)-4-(methyl(4-(2-(6-morpholinopyridin-3-yl)phenyl)thiazol-2-yl)amino)-4-oxobutanoic acid], for which the EC50 amounted to 50 nM.

With `CN(C(=O)[C@@H](CC(=O)O)Cc1ccccc1)c1nc(-c2ccccc2-c2ccc(F)nc2)cs1` [Compound 119, (R)-3-benzyl-4-((4-(2-(6-fluoropyridin-3-yl)phenyl)thiazol-2-yl)(methyl)amino)-4-oxobutanoic acid], the 50% effective concentration (EC50) turned out to be 421 nM.

Consider `CN(C(=O)[C@H]1CCCC[C@H]1C(=O)O)c1nc(-c2ccccc2Cl)cs1` (relative stereo) [Compound 101, cis-2-((4-(2-chlorophenyl)thiazol-2-yl)(methyl)carbamoyl)cyclohexanecarboxylic acid], for which the 50% effective concentration (EC50) is 67 nM.

On to `CN(C(=O)[C@@H](CC(=O)O)Cc1ccccc1)c1nc(-c2ccccc2-c2ccc(C#N)cc2)cs1` [Compound 206, (R)-3-benzyl-4-((4-(4′-cyano-[1,1′-biphenyl]-2-yl)thiazol-2-yl)(methyl)amino)-4-oxobutanoic acid], for which the concentration giving a half-maximal response (EC50) was 2320 nM.

As for `COc1ccc(-c2ccccc2-c2csc(N(C)C(=O)[C@@H](CC(=O)O)Cc3ccccc3)n2)cc1` [Compound 129, (R)-3-benzyl-4-((4-(4′-methoxy-[1,1′-biphenyl]-2-yl)thiazol-2-yl)(methyl)amino)-4-oxobutanoic acid], the concentration giving a half-maximal response (EC50) turned out to be 858 nM.

`N#Cc1ccc(-c2csc(NC(=O)[C@@H](CC(=O)O)Cc3ccccc3)n2)cc1` [Compound 8, (R)-3-benzyl-4-(4-(4-cyanophenyl)thiazol-2-ylamino)-4-oxobutanoic acid]: the EC50 came out at 563 nM.

For the molecule `CN(C(=O)C(CC(=O)O)CC1CCCCC1)c1nc(-c2ccccc2Cl)cs1` (stereo not shown) [Compound 103, 4-((4-(2-chlorophenyl)thiazol-2-yl)(methyl)amino)-3-(cyclohexylmethyl)-4-oxobutanoic acid], the EC50 came out at 137 nM.

With `O=C(O)C[C@@H](Cc1cccc(F)c1)C(=O)Nc1nc(-c2ccccc2Cl)cs1` [Compound 93, (R)-4-(4-(2-chlorophenyl)thiazol-2-ylamino)-3-(3-fluorobenzyl)-4-oxobutanoic acid], the EC50 was 493 nM.

With `O=C(O)/C=C\C(=O)Nc1nc(-c2ccccc2Cl)cs1` [Compound 10, (Z)-4-(4-(2-chlorophenyl)thiazol-2-ylamino)-4-oxobut-2-enoic acid], the EC50 turned out to be 405 nM.

On to `CN(C(=O)[C@@H](CC(=O)O)Cc1ccccc1)c1nc(-c2ccccc2Cl)c(Cl)s1` [Compound 21, (R)-3-benzyl-4-((5-chloro-4-(2-chlorophenyl)thiazol-2-yl)(methyl)amino)-4-oxobutanoic acid], for which the half-maximal effective concentration (EC50) was found to be 260 nM.

For the molecule `CC(C)C[C@H](CC(=O)O)C(=O)N(C)c1nc(-c2ccccc2Cl)cs1` [Compound 90, (R)-3-((4-(2-chlorophenyl)thiazol-2-yl)(methyl)carbamoyl)-5-methylhexanoic acid], the EC50 was determined as 88 nM.

For `Cc1ccc(CC(CC(=O)O)C(=O)N(C)c2nc(-c3ccccc3Cl)cs2)cc1` (stereo not shown) [Compound 110, 4-((4-(2-chlorophenyl)thiazol-2-yl)(methyl)amino)-3-(4-methylbenzyl)-4-oxobutanoic acid], the half-maximal effective concentration (EC50) stood at 452 nM.

In the case of `O=C(O)C[C@@H](CC1CCCC1)C(=O)N(c1nc(-c2cc(Cl)ccc2Cl)cs1)C1CC1` [Compound 166, (R)-3-(cyclopentylmethyl)-4-(cyclopropyl(4-(2,5-dichlorophenyl)thiazol-2-yl)amino)-4-oxobutanoic acid], the EC50 was determined as 13 nM.

On to `COC(=O)CCN(C(=O)[C@@H](CC(=O)O)Cc1ccccc1)c1nc(-c2ccccc2Cl)cs1` [Compound 126, (R)-3-benzyl-4-((4-(2-chlorophenyl)thiazol-2-yl)(3-methoxy-3-oxopropyl)amino)-4-oxobutanoic acid], for which the concentration for a half-maximal effect (EC50) was determined as 183 nM.

As to `CN(C)c1ccc(-c2ccccc2-c2csc(N(C)C(=O)[C@@H](CC(=O)O)Cc3ccccc3)n2)cn1` [Compound 115, (R)-3-benzyl-4-((4-(2-(6-(dimethylamino)pyridin-3-yl)phenyl)thiazol-2-yl)(methyl)amino)-4-oxobutanoic acid], the EC50 was 72 nM.

Take `COc1ccc(-c2ccccc2-c2csc(N(C(=O)[C@@H](CC(=O)O)Cc3ccccc3)C3CC3)n2)cn1` [Compound 178, (R)-3-benzyl-4-(cyclopropyl(4-(2-(6-methoxypyridin-3-yl)phenyl)thiazol-2-yl)amino)-4-oxobutanoic acid]: the half-maximal effective concentration (EC50) amounted to 30 nM.

Regarding `CN(C(=O)[C@@H](CC(=O)O)Cc1ccccc1)c1nc(-c2ccccc2-c2ccc(OCc3ccccc3)nc2)cs1` [Compound 158, (R)-3-benzyl-4-((4-(2-(6-(benzyloxy)pyridin-3-yl)phenyl)thiazol-2-yl)(methyl)amino)-4-oxobutanoic acid], the EC50 came out at 49 nM.

As to `O=C(O)C[C@@H](Cc1ccccc1)C(=O)Nc1nc(-c2ccc(Cl)c(Cl)c2)cs1` [Compound 5, (R)-3-benzyl-4-(4-(3,4-dichlorophenyl)thiazol-2-ylamino)-4-oxobutanoic acid], the EC50 amounted to 292 nM.
